# Laboratory results reported in ChEMBL document CHEMBL3045850, “Effects of Pyridalyl, a Novel Insecticidal Agent, on Cultured Sf9 Cells” (2005).
# Calls of active or inactive are those of the source. No cut-off for these calls is given here.
# How the values were obtained:
# Sf9 [1] = assay: Induction of cell growth in Spodoptera frugiperda (fall armyworm) Sf9 cells at 10 uM after 72 hr by trypan blue dye exclusion test; type: functional, cell-based
# Sf9 [2] = assay: Cytotoxicity against Spodoptera frugiperda (fall armyworm) Sf9 cells assessed as formation of granular structures at 1 to 10 uM after 72 hr by microscopic analysis; type: functional, cell-based
# Spodoptera litura [3] = assay: Inhibition of mitochondrial respiration in Spodoptera litura mitochondria assessed as oxygen consumption at 20 uM at 3:1 minute after addition of 0.2 mM of rotenone and 0.1 mM of succinate (reference value: 0.5%); type: functional; set-up: scale not given: the % may be the effect or the level left
# Spodoptera litura [4] = assay: Inhibition of mitochondrial respiration in Spodoptera litura mitochondria assessed as oxygen consumption at 20 uM at 1:1 minute after addition of 0.1 mM of ADP (reference value: 12.2%); type: functional; set-up: scale not given: the % may be the effect or the level left
# Spodoptera litura [5] = assay: Inhibition of mitochondrial respiration in Spodoptera litura mitochondria assessed as oxygen consumption at 20 uM at 2:1 minute after addition of 0.1 mM of ADP (reference value: 54.4%); type: functional; set-up: scale not given: the % may be the effect or the level left
# Sf9 [6] = assay: Cytotoxicity against Spodoptera frugiperda (fall armyworm) Sf9 cells at 0.01 to 10 uM after 72 hr by trypan blue dye exclusion test; type: functional, cell-based
# Spodoptera litura [7] = assay: Insecticidal activity against Spodoptera litura assessed as mortality at 500 mg/L after 6 days; type: functional; settings: 144 h
# Sf9 [8] = assay: Cytotoxicity against Spodoptera frugiperda (fall armyworm) Sf9 cells at 10 uM after 72 hr by trypan blue dye exclusion test; type: functional, cell-based
# Sf9 [9] = assay: Cytotoxicity against Spodoptera frugiperda (fall armyworm) Sf9 cells at 5 uM after 72 hr by trypan blue dye exclusion test; type: functional, cell-based
# Sf9 [10] = assay: Cytotoxicity against Spodoptera frugiperda (fall armyworm) Sf9 cells at 1 to 10 uM after 72 hr by trypan blue dye exclusion test; type: functional, cell-based
# Sf9 [11] = assay: Cytotoxicity against Spodoptera frugiperda (fall armyworm) Sf9 cells at 0.1 to 1 uM after 72 hr by trypan blue dye exclusion test; type: functional, cell-based
# Sf9 [12] = assay: Cytotoxicity against Spodoptera frugiperda (fall armyworm) Sf9 cells at 0.1 to 10 uM after 72 hr by trypan blue dye exclusion test; type: functional, cell-based
Structure (SMILES),mortality at 500 µg/mL (Spodoptera litura [7]) [%],Activity (Sf9 [8]),further results
CC1(C)C(C=C(Cl)Cl)C1C(=O)OC(C#N)c1cccc(Oc2ccccc2)c1 (stereo unspecified),–,–,Activity (Sf9 [1]): Active
FC(F)(F)c1ccc(OCCCOc2c(Cl)cc(OCC=C(Cl)Cl)cc2Cl)nc1 [PYRIDALYL],100,–,Activity (Sf9 [2]): Active; Activity (Spodoptera litura [3]): 0.5%; Activity (Spodoptera litura [4]): 12.2%; Activity (Spodoptera litura [5]): 53.3%; Activity (Sf9 [6]): Active
ClC(Cl)=C(Cl)COc1cc(Cl)c(OCCCOc2ccc(Cl)cc2)c(Cl)c1,0,inactive,–
ClC(Cl)=CCOc1cc(Cl)c(OCCCOc2ccc(Cl)cc2)c(Cl)c1,100,Active,–
FC(F)(F)c1ccc(OCCCOc2c(Cl)cc(OC/C(Cl)=C/Cl)cc2Cl)nc1,0,inactive,–
C[C@@]1(CO)[C@H](O)CC[C@@]2(C)[C@H]1CC[C@H]1C[C@@H]3C[C@@]12CC[C@]3(O)CO,–,–,Activity (Sf9 [9]): inactive
O=[N+]([O-])c1ccc(O)c([N+](=O)[O-])c1,–,Active,–
COP(=O)(NC(C)=O)SC (stereo unspecified),–,–,Activity (Sf9 [1]): Active
COc1ccc(C[C@H]2NC[C@H](O)[C@H]2OC(C)=O)cc1,–,Active,–
CC[C@H]1/C=C/C=C/C[C@@H](C)[C@H](O)[C@@](C)(O)C(=O)[C@@H](C)[C@H](O)[C@@H](C)C(=O)[C@@H](C)[C@H](O)[C@@H](C)/C=C/C(=O)O[C@@H]2[C@H](C)[C@H](CC1)O[C@]1(CC[C@H](C)[C@H](C[C@@H](C)O)O1)[C@H]2C,–,–,Activity (Sf9 [10]): Active
CNC(=O)ON=C(C)SC,–,–,Activity (Sf9 [1]): Active
O=c1[nH]cc(F)c(=O)[nH]1,–,–,Activity (Sf9 [11]): Active
C=C(C)[C@H]1Cc2c(ccc3c2O[C@@H]2COc4cc(OC)c(OC)cc4[C@@H]2C3=O)O1,–,–,Activity (Sf9 [10]): Active
FC(F)(F)c1ccc(OCCCOc2ccc(OCC=C(Cl)Cl)cc2)nc1,0,inactive,–
CC(COc1cc(Cl)c(OCCCOc2ccc(Cl)cc2)c(Cl)c1)=C(Cl)Cl,0,inactive,–
CCOCn1c(-c2ccc(Cl)cc2)c(C#N)c(Br)c1C(F)(F)F,–,–,Activity (Sf9 [12]): Active
